Assay results from US6503721B2, “Screen for compounds with affinity for nucleic acids” (Anadys Pharmaceuticals, Inc., priority 1995, dated 2003).

Assays:
[1] = test system: AB-RNA-F; assay: Fluorescence SCAN assay, fluorescein-labelled AB-RNA-F and unlabelled oligonucleotide 67B; assay type: binding; conditions: for effect on fluorescence increase: FIG. 28B
Protocol: B. Experimental results: While developing a SCAN assay based on FET between 3′-fluorescein labeled AB-RNA (AB-RNA-F) and a 5′-rhodamine labeled oligonucleotide, it was unexpectedly observed in a control experiment that a substantial increase in fluorescein emission at 535 nm occurred upon addition of an oligonucleotide carrying no fluorescent labels (FIG. 28A). Reactions containing 50 mM Tris pH 7.5, 200 mM NaCl, 10 mM MgCl2, and 60 nM AB-RNA-F were monitored at 535 nm emission (485 nm excitation) in a CytoFluor II fluorescence multi-well plate reader (PerSeptive Biosystems, Framingham,Mass.) for increasing times after the addition of oligonucleotide 67B. Because of the high reproducibility and sensitivity of fluorescence spectrophotometers, a 2-fold increase in fluorescence represents more that sufficient change in signal to use it as a sensitive assay. Therefore, the effect of ATP, GTP and UTP was tested in SCAN reactions containing AB-RNA-F and the unlabeled oligonucleotide 67B (FIG. 28B).

[2] = test system: HIV RRE RNA; assay: SCAN nitrocellulose filter binding assay, RRE RNA and biotinylated complementary oligonucleotide; conditions: heterologous RNA target, FIG. 17
Protocol: (§1) Adsorption to nitrocellulose filters: This embodiment takes advantage of the fact that most proteins tightly adsorb to nitrocellulose filters. When using a biotinylated oligonucleotide and a labelled target RNA, free SA or a SA derivative such as SA:alkaline phosphatase conjugate (SA:AP), SA:β-galactosidase (SA:BG), or other SA-conjugate or fusion protein, is added to the reaction to allow binding to the biotin moiety in the oligonucleotide. Subsequently, the reaction is filtered through 96-well nitrocellulose filter plates (Millipore, Bedford, Mass., HATF or NC). Labeled target RNA hybridized to the biotinylated oligonucleotide is retained in the filter through the adsorption of SA or its derivative to the filter, while unhybridized RNA passes through. […] Therefore, the use of SA fusion proteins or conjugates is preferred. An example of the use of this method is described in Example 3 below.
The target RNA was an RNA molecule containing the binding site for the HIV Rev protein (Rev Responsive Element, RRE; 5′-GAAUACUAUGGGCGCAGCGUCAAUGACGCUGACGGUACAGGCCAGACAAUUAUUGUCUGGUAUAGU-3′- SEQ ID NO:2) which had been labelled with 32P as described in Example 1 above. […] The filtrate was further washed with 400 μl of the same buffer and the amount of RRE retained in the filter was determined by liquid scintillation counting. […]

[3] = test system: AB-RNA; assay: Hybrid capture on streptavidin-coated paramagnetic beads (AB-RNA : biotinylated oligonucleotide RBS-96-60); assay type: binding
Excerpt: SA coated paramagnetic beads: The washing step required when using SA-beads can be facilitated by using paramagnetic-SA coated beads (PMP-SA). These beads are commercially available (Promega, Madison, Wis.) and can be concentrated and held by a magnet. Positioning the magnet under the plate during washing steps concentrates and retains the beads at the bottom of the well during the washing procedure thus preventing loss of beads and allowing faster operation. An example of the use of this method is described in Example 2 below. The [^32P]-labelled ATP-binding RNA described in Example 1 above (AB-RNA) was heat denatured at 90° C. for 2 min in binding buffer (50 mM Tris pH 7.5, 200 mM NaCl, and 10 mM MgCl2) and chilled on ice for 2 min. 37.5 μl aliquots of the heat denatured AB-RNA were then mixed with 12.5 μl of a solution containing 12.5 pmol of the 5′-biotinylated oligonucleotide RBS-96-60 (having a nucleotide sequence identical to RBS-87-8A described in Example 1 above) and varying amounts of ATP or UTP. After a brief incubation at room temperature, the mixture was transferred into 96-well plates containing 0.5 mg paramagnetic beads coated with streptavidin (PMP-SA) (Promega, Madison, Wis.). Plates were incubated at room temperature for 15 min to allow binding. […] [^32P]-labelled AB-RNA bound to the beads was then quantitated by Cerenkov counting in a Microbetta LSC-counter (Wallac).

[4] = target: AB-RNA; assay: SCAN nitrocellulose filter binding assay, AB-RNA and biotinylated oligonucleotide 67B
Protocol: as §1, with “below. SCAN reactions containing 100 nM radiolabeled AB-RNA and 250 nM biotinylated oligonucleotide 67B were incubated with increasing amounts of ATP or UTP as test ligands. In the absence of test ligand, 70% of AB-RNA was retained on NC-filters. Inhibition of RNA retention on NC-filters Inhibition of RNA retention on NC-filters (% inhibtion) was obtained as (1−(R/R0)×100), where R0 is retention without test ligand and R is retention with test ligand. […]” for “below.”

[5] = test system: AB RNA; assay: UV absorbance (260 nM) thermal melting of AB RNA; assay type: binding
Protocol: The experiment described below was performed to monitor the stabilization of an RNA structure upon ligand binding. In this experiment, absorbance at 260 nm was monitored as the temperature of the sample was increased. The increase in temperature causes the RNA to unfold, thereby allowing individual bases to absorb more ultraviolet light.

[6] = test system: AB RNA; assay: SCAN assay under equilibrium conditions (dissociation of pre-formed AB RNA:oligonucleotide complexes); assay type: binding; conditions: 100 μM ATP, 20 nM AB RNA, 100 nM oligonucleotide
Excerpt: A screening assay having this configuration has the advantage of removing time constraints for various steps in the assay. In addition, thermodynamic parameters associated with ligand binding can be more easily derived from the results of the assay. Using a series of oligonucleotides of various length and target sites comprising AB RNA, a group of oligonucleotides has been identified that fully equilibrate with ATP (an example is shown in FIG. 20, top panel). The oligonucleotide used is complementary to the sequence shown in bold-faced letters (FIG. 20, top panel). Target RNA:oligonucleotide complexes were pre-formed by incubated a solution containing 100 nM AB RNA and 500 nM oligonucleotide for 2 h at 25° C. Dissociation was initiated by diluting the reaction 5-fold in the presence or absence of 100 μM ATP (resulting in final concentrations of AB RNA, 20 nM; oligonucleotide, 100 nM; ATP, 100 μM). Binding of hybrids to nitrocellulose filters was performed as described above.

[7] = test system: AB-RNA; assay: Gel shift assay: hybridization of radiolabelled AB-RNA to complementary DNA oligonucleotide RBS-87-8A; assay type: binding; conditions: 30 μM ligand
Excerpt: A gel shift protocol, though nominally a low-throughput method, is an important tool for the initial selection of the assay configuration for oligonucleotide-based methods to be used with each particular target RNA. Typically, the target RNA is transcribed in vitro, using as template a DNA that contains the sequence for the T7-RNA polymerase promoter followed by a region encoding the target RNA, and [^32P]-UTP to produce radiolabelled RNA. Conditions for the T7 RNA polymerase transcription reaction using oligonucleotide templates have been described by Milligan et al., Nuc. Acids Res., 15: 8783, 1987. The [^32P]-labelled target RNA is optionally heat denatured at 90° C. for 2 min and chilled on ice for 2 min, after which aliquots are incubated in the absence and presence of test ligands and increasing concentrations of a complementary oligonucleotide. The reaction mixtures are then resolved in polyacrylamide native gels containing or lacking the test ligands.
AB-RNA was transcribed using as template the DNA oligonucleotide RBS-87-8A, (5′-GGAACCTTGCCGGCACCGAAGTGCCGCAGTTTCTTCCCAAGGTTCCTATAGTGAGTCGTATTA-3′-SEQ ID NO:1), which contains the sequence for the T7-RNA polymerase promoter followed by a region encoding AB-RNA. [32P]-labelled AB-RNA was obtained by including [32P]-UTP in the transcription reaction. […]

## Nc1nc2c(ncn2[C@@H]2O[C@H](COP(=O)(O)OP(=O)(O)OP(=O)(O)O)[C@@H](O)[C@H]2O)c(=O)[nH]1 [GTP]
[1]
  effect on fluorescence increase: no effect at all

## Nc1ncnc2c1ncn2[C@@H]1O[C@H](COP(=O)(O)OP(=O)(O)OP(=O)(O)O)[C@@H](O)[C@H]1O [ATP]
[2]
  effect on RRE based SCAN reactions: no effect
[3]; PMP-SA beads, room temperature, read-out: ligand concentration reducing the amount of hybrids formed by 50%
  IC50: 0.025 mM
[4]; 100 nM AB-RNA, 250 nM oligonucleotide 67B, read-out: ligand concentration inhibiting AB-RNA retention on NC-filters by 50%
  IC50: 5 mM
[4]; ratio of concentrations for 50% inhibition
  specificity factor ATP versus UTP: 100 fold
[5]; absorbance at 260 nm, FIG. 21
  temperature of new transition in first derivative of absorbance, seen only with ligand: 40 °C
[5]; thermal melting
  effect of ligand on RNA structure: stabilizes the RNA structure
[1]; 60 nM AB-RNA-F, emission 535 nm, read-out: IC50 for inhibition of fluorescence increase
  IC50: 5 mM
[6]
  inhibition of oligo:RNA complex: approximately 60%

## O=c1ccn([C@@H]2O[C@H](COP(=O)(O)OP(=O)(O)OP(=O)(O)O)[C@@H](O)[C@H]2O)c(=O)[nH]1 [UTP]
[3]; increasing ligand concentrations
  effect on amount of hybrids bound to PMP-SA beads: no effect
[7]
  competition with the oligonucleotide for binding to AB-RNA: unable to compete
[1]
  effect on fluorescence increase: some effect at much higher concentrations
